This passage reports IC50, Kd and residence time results from US11319299B2, “Substituted carboxamides as inhibitors of WDR5 protein-protein binding” (PROPELLON THERAPEUTICS INC., priority 2016, dated 2022).

The structures appear in SMILES notation. Read-outs that look alike come from different tables or passages of the source.

The test system of one assay is MV4-11 cells. As to the kind of experiment: Cell proliferation assay (ATPlite). Format: cell-based. The settings on record: Homo sapiens, MV4-11, 120 h; MV-411 cells, five days; read-out: In vitro whole cell potency in MV-411 cells, (IC50). The procedure, abridged: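 Read-out is ATP-based luminescence (ATPlite) after 5 days of culture at 37° C under 5% CO2. Compounds were given as 10-point dilutions starting at 10 μM to MV4-11 cells, seeded at 1,000 cells/well in Alpha-MEM plus 10% FBS.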
(In ATP-based viability assays light output follows the ATP content of the culture.)

In another assay the target is WDR5 (Homo sapiens (Human), UniProt P61964). As to the kind of experiment: Surface Plasmon Resonance (SPR) assay, KD and residence time. Format: binding. To be noted: for Kd: read-out: WDR5 binding affinity (KD).
Setting [1] is: surface plasmon resonance (SPR).
The mark [2] stands for this setting: surface plasmon resonance (SPR) assay.

In general, IC50 refers to the concentration that gives 50% inhibition. A word on the Kd: it is the constant that tells how readily two partners part at equilibrium. Take `C[C@@H]1CN(c2nccc(-c3cc(NC(=O)c4c[nH]c(=O)cc4C(F)(F)F)c(N4CCN(C)[C@H](C)C4)cc3F)n2)CCO1` (stereo in doubt) [Example 593, N-[4-fluoro-2-[(3R)-3,4-dimethylpiperazin-1-yl]-5-[2-[(2R)-2-methylmorpholin-4-yl]pyrimidin-4-yl]phenyl]-6-oxo-4-(trifluoromethyl)-1H-pyridine-3-carboxamide]: the half-maximal inhibitory concentration (IC50) with MV4-11 cells worked out at 14 nM. The Kd on WDR5 (setting [1]) was determined as 0.737 nM.
`CC1CN(c2nccc(-c3cc(NC(=O)c4c[nH]c(=O)cc4C(F)(F)F)c(N4C[C@@H](C)N(C)[C@@H](C)C4)cc3F)n2)CCO1` (stereo in doubt) [Example 594, N-[4-fluoro-5-[2-[(2R)-2-methylmorpholin-4-yl]pyrimidin-4-yl]-2-[(3S,5R)-3,4,5-trimethylpiperazin-1-yl]phenyl]-6-oxo-4-(trifluoromethyl)-1H-pyridine-3-carboxamide]: the IC50 in the assay with MV4-11 cells is 19 nM. In addition, the Kd on WDR5 (setting [1]) worked out at 0.712 nM.
As to `CC1CN(c2cc(F)c(-c3csc(N4CCOCC4)n3)cc2NC(=O)c2c[nH]c(=O)cc2C(F)(F)F)CCN1C` (stereo in doubt) [Example 617, N-[4-fluoro-5-(2-morpholin-4-yl-1,3-thiazol-4-yl)-2-[(3R)-3,4-dimethylpiperazin-1-yl]phenyl]-6-oxo-4-(trifluoromethyl)-1H-pyridine-3-carboxamide], the IC50 in the assay with MV4-11 cells was determined as 36 nM. Also, at WDR5 (setting [1]), the Kd is 558000 nM.
Broadly, the residence time is how long the partners stay bound on average. `C[C@@H]1CN(c2cc(F)c(-c3cnc(N4CCOCC4)nc3)cc2NC(=O)c2c[nH]nc2C(F)(F)F)C[C@H](C)N1C` [Example 42, N-[4-fluoro-5-(2-morpholin-4-ylpyrimidin-5-yl)-2-[(3R,5S)-3,4,5-trimethylpiperazin-1-yl]phenyl]-3-(trifluoromethyl)-1H-pyrazole-4-carboxamide]: the IC50 with MV4-11 cells was 428 nM. Also, at WDR5 (τ=1/koff, Table 2, read-out: Residence Time (t, min)), the residence time amounted to 3.45 min.
As for `C[C@@H]1CN(c2cc(F)c(-c3ccc4c(c3)OCO4)cc2NC(=O)c2c[nH]c(=O)cc2C(F)(F)F)C[C@H](C)N1C` [Example 63, N-[5-(1,3-benzodioxol-5-yl)-4-fluoro-2-[(3R,5S)-3,4,5-trimethylpiperazin-1-yl]phenyl]-6-oxo-4-(trifluoromethyl)-1H-pyridine-3-carboxamide], the IC50 with MV4-11 cells amounted to 206 nM. Also, the Kd on WDR5 (setting [2]) came out at 0.694 nM.
With `CC(=O)Nc1ccc(-c2cc(NC(=O)c3c[nH]c(=O)cc3C(F)(F)F)c(N3C[C@@H](C)N(C)[C@@H](C)C3)cc2F)cn1` [Example 64, N-[5-(6-acetamidopyridin-3-yl)-4-fluoro-2-[(3R,5S)-3,4,5-trimethylpiperazin-1-yl]phenyl]-6-oxo-4-(trifluoromethyl)-1H-pyridine-3-carboxamide], the IC50 in the assay with MV4-11 cells was found to be 366 nM. In addition, the Kd on WDR5 (setting [2]) worked out at 0.199 nM.
`COCCOc1ccc(-c2cc(NC(=O)c3c[nH]c(=O)cc3C(F)(F)F)c(N3C[C@@H](C)N(C)[C@@H](C)C3)cc2F)cc1` [Example 90, N-[4-fluoro-5-[4-(2-methoxyethoxy)phenyl]-2-[(3R,5S)-3,4,5-trimethylpiperazin-1-yl]phenyl]-6-oxo-4-(trifluoromethyl)-1H-pyridine-3-carboxamide]: the IC50 in the assay with MV4-11 cells was found to be 120 nM. The Kd on WDR5 (setting [2]) is 0.441 nM.
In the same order, the values of `CC(C)COc1ncc(-c2cc(NC(=O)c3c[nH]c(=O)cc3C(F)(F)F)c(N3C[C@@H](C)N(C)[C@@H](C)C3)cc2F)cc1Cl` [Example 91, N-[5-[5-chloro-6-(2-methylpropoxy)pyridin-3-yl]-4-fluoro-2-[(3R,5S)-3,4,5-trimethylpiperazin-1-yl]phenyl]-6-oxo-4-(trifluoromethyl)-1H-pyridine-3-carboxamide] are 257 nM and 4.47 nM.
In the same order, the values of `C[C@@H]1CN(c2cc(F)c(-c3ccc(OCC4CC4)c(Cl)c3)cc2NC(=O)c2c[nH]c(=O)cc2C(F)(F)F)C[C@H](C)N1C` [Example 92, N-[5-[3-chloro-4-(cyclopropylmethoxy)phenyl]-4-fluoro-2-[(3R,5S)-3,4,5-trimethylpiperazin-1-yl]phenyl]-6-oxo-4-(trifluoromethyl)-1H-pyridine-3-carboxamide] are 71 nM and 10.9 nM.
In the case of `C[C@@H]1CN(c2cc(F)c(-c3cnc(N4CCOCC4)nc3)cc2NC(=O)c2cn(C)c(=O)cc2C(F)(F)F)C[C@H](C)N1C` [Example 93, N-[4-fluoro-5-(2-morpholin-4-ylpyrimidin-5-yl)-2-[(3R,5S)-3,4,5-trimethylpiperazin-1-yl]phenyl]-1-methyl-6-oxo-4-(trifluoromethyl)pyridine-3-carboxamide], the concentration for half-maximal inhibition (IC50) in the assay with MV4-11 cells was 48 nM. The Kd at WDR5 (setting [2]) is 2.17 nM.
The like results for `C[C@@H]1CN(c2ncc(-c3cc(NC(=O)c4c[nH]c(=O)cc4C(F)(F)F)c(N4C[C@@H](C)N(C)[C@@H](C)C4)cc3F)cn2)C[C@H](C)O1` [Example 161, N-[4-fluoro-5-[2-[(2R,6S)-2,6-dimethylmorpholin-4-yl]pyrimidin-5-yl]-2-[(3S,5R)-3,4,5-trimethylpiperazin-1-yl]phenyl]-6-oxo-4-(trifluoromethyl)-1H-pyridine-3-carboxamide] were, in that order, 28 nM and 1 nM.
With `C[C@@H]1CN(c2cc(F)c(-c3cnc(N(C)C)c(F)c3)cc2NC(=O)c2c[nH]c(=O)cc2C(F)(F)F)C[C@H](C)N1C` [Example 221, N-[5-[6-(dimethylamino)-5-fluoropyridin-3-yl]-4-fluoro-2-[(3R,5S)-3,4,5-trimethylpiperazin-1-yl]phenyl]-6-oxo-4-(trifluoromethyl)-1H-pyridine-3-carboxamide], the 50% inhibitory concentration (IC50) in the assay with MV4-11 cells was found to be 120 nM. Besides, the Kd on WDR5 (setting [2]) was found to be 0.769 nM.
On to `C[C@@H]1CN(c2cc(F)c(C3=CCN(c4ncccn4)CC3)cc2NC(=O)c2c[nH]c(=O)cc2C(F)(F)F)C[C@H](C)N1C` [Example 245, N-[4-fluoro-5-(1-pyrimidin-2-yl-3,6-dihydro-2H-pyridin-4-yl)-2-[(3R,5S)-3,4,5-trimethylpiperazin-1-yl]phenyl]-6-oxo-4-(trifluoromethyl)-1H-pyridine-3-carboxamide], for which the IC50 in the assay on MV4-11 cells was 125 nM. Also, the Kd on WDR5 (setting [2]) is 1.39 nM.
As for `C[C@@H]1CN(c2cc(F)c(-c3ccc(N4CCOCC4)c(F)c3)cc2NC(=O)c2cn(C)c(=O)cc2C(F)(F)F)C[C@H](C)N1C` [Example 247, N-[4-fluoro-5-(3-fluoro-4-morpholin-4-ylphenyl)-2-[(3R,5S)-3,4,5-trimethylpiperazin-1-yl]phenyl]-1-methyl-6-oxo-4-(trifluoromethyl)pyridine-3-carboxamide], the IC50 with MV4-11 cells is 854 nM. In addition, the Kd on WDR5 (setting [2]) amounted to 5.16 nM.
With `C[C@@H]1CN(c2cc(F)c(-c3cnc(N4CCOCC4)nc3)cc2NC(=O)c2ccc(F)cc2C(F)(F)F)C[C@H](C)N1C` [Example 248, 4-fluoro-N-[4-fluoro-5-(2-morpholin-4-ylpyrimidin-5-yl)-2-[(3R,5S)-3,4,5-trimethylpiperazin-1-yl]phenyl]-2-(trifluoromethyl)benzamide], in the assay with MV4-11 cells, the IC50 amounted to 137 nM. Further, the Kd at WDR5 (setting [2]) came out at 1.33 nM.
The like results for `COc1cc(N2CC=C(c3cc(NC(=O)c4c[nH]c(=O)cc4C(F)(F)F)c(N4C[C@@H](C)N(C)[C@@H](C)C4)cc3F)CC2)ncn1` [Example 274, N-[4-fluoro-5-[1-(6-methoxypyrimidin-4-yl)-3,6-dihydro-2H-pyridin-4-yl]-2-[(3R,5S)-3,4,5-trimethylpiperazin-1-yl]phenyl]-6-oxo-4-(trifluoromethyl)-1H-pyridine-3-carboxamide] were, in that order, 75 nM and 1.29 nM.
With `C[C@@H]1CN(c2cc(F)c(C3=CCCN(c4ncccn4)C3)cc2NC(=O)c2c[nH]c(=O)cc2C(F)(F)F)C[C@H](C)N1C` [Example 334, N-[4-fluoro-5-(1-pyrimidin-2-yl-3,6-dihydro-2H-pyridin-5-yl)-2-[(3R,5S)-3,4,5-trimethylpiperazin-1-yl]phenyl]-6-oxo-4-(trifluoromethyl)-1H-pyridine-3-carboxamide], the IC50 in the assay on MV4-11 cells is 31 nM. In addition, the equilibrium dissociation constant (Kd) at WDR5 (setting [2]) came out at 0.095 nM.
Regarding `C[C@@H]1CN(c2cc(F)c(-c3ccnc(N4CCOCC4)n3)cc2NC(=O)c2c[nH]c(=O)cc2C(F)(F)F)C[C@H](C)N1C` [Example 378, N-[4-fluoro-5-(2-morpholin-4-ylpyrimidin-4-yl)-2-[(3R,5S)-3,4,5-trimethylpiperazin-1-yl]phenyl]-6-oxo-4-(trifluoromethyl)-1H-pyridine-3-carboxamide], the IC50 in the assay with MV4-11 cells stood at 20 nM. Moreover, the Kd on WDR5 (setting [2]) was 0.877 nM.
For the molecule `C[C@@H]1CN(c2cc(F)c(C3=CCCN(c4ncc(CO)cn4)C3)cc2NC(=O)c2c[nH]c(=O)cc2C(F)(F)F)C[C@H](C)N1C` [Example 413, N-[4-fluoro-5-[1-[5-(hydroxymethyl)pyrimidin-2-yl]-3,6-dihydro-2H-pyridin-5-yl]-2-[(3R,5S)-3,4,5-trimethylpiperazin-1-yl]phenyl]-6-oxo-4-(trifluoromethyl)-1H-pyridine-3-carboxamide], in the assay on MV4-11 cells, the IC50 came out at 57 nM. Also, at WDR5 (setting [1]), the Kd is 0.302 nM.
`C[C@@H]1CN(c2cc(F)c(C3=CCCN(c4ncc(CN(C)C)cn4)C3)cc2NC(=O)c2c[nH]c(=O)cc2C(F)(F)F)C[C@H](C)N1C` [Example 414, N-[5-[1-[5-[(dimethylamino)methyl]pyrimidin-2-yl]-3,6-dihydro-2H-pyridin-5-yl]-4-fluoro-2-[(3R,5S)-3,4,5-trimethylpiperazin-1-yl]phenyl]-6-oxo-4-(trifluoromethyl)-1H-pyridine-3-carboxamide]: the IC50 in the assay on MV4-11 cells stood at 8 nM. Further, the Kd on WDR5 (setting [1]) amounted to 0.658 nM.
In the same order, the values of `C[C@@H]1CN(c2cc(F)c(C3=CCCN(c4ncc(CN5CCOCC5)cn4)C3)cc2NC(=O)c2c[nH]c(=O)cc2C(F)(F)F)C[C@H](C)N1C` [Example 415, N-[4-fluoro-5-[1-[5-(morpholin-4-ylmethyl)pyrimidin-2-yl]-3,6-dihydro-2H-pyridin-5-yl]-2-[(3R,5S)-3,4,5-trimethylpiperazin-1-yl]phenyl]-6-oxo-4-(trifluoromethyl)-1H-pyridine-3-carboxamide] are 17 nM and 1.1 nM.
